Source: article PMC5609566, “Elucidation of antimicrobial activity and mechanism of action by N-substituted carbazole derivatives” (Bioorganic & Medicinal Chemistry Letters, 2017)
Converted amounts (≈) assume the structure as drawn.

Experiments:
C. albicans (ATCC 90028) = assay: Fungal growth inhibition, library hits; type: cell-based
Description: (§1) Compound hits from the library screening were evaluated against baker yeast S. cerevisiae and C. albicans (ATCC 90028). The minimum inhibitory concentration (MIC) was defined as the lowest concentration inhibiting visual growth of the microorganism and this was determined in triplicate. Standard errors were typically less than 5%. MICs for synthesized compounds were determined on the following fungal isolates: Saccharomyces cerevisiae (ATCC 9763), Candida albicans (SC5314), Candida krusei (ATCC 6258), Candida glabrata (ATCC 90030), Aspergillus flavus (ATCC MYA-1005) and Aspergillus fumigatus (ATCC 13073), which were purchased from American Type Culture Collection, and C. glabrata strain Cg003, which was kindly provided by Julius Subik, Comenius University in Bratislava, Slovak Republic. Cg003 is a clinical isolate, characterized to be resistant to fluconazole and itraconazole due to overexpression of the multidrug resistance efflux pumps Cdr1p and Cdr2p^5. The fungal growth assay was performed as described in Kjellerup et al., 2017^6.

S. cerevisiae [1] = assay: Fungal growth inhibition, library hits; type: cell-based; settings: Saccharomyces cerevisiae, baker yeast
Description: as §1

S. cerevisiae H^+-ATPase = molecular target: T1, S. cerevisiae H^+-ATPase (Saccharomyces cerevisiae, UniProt P05030); assay: Colorimetric ATPase assay (ATP hydrolysis), S. cerevisiae plasma membranes; type: biochemical; settings: initial hit compounds, Table 1
T1 construct: transformed with the full-length cDNA of the S. cerevisiae plasma membrane H^+-ATPase isoform PMA1; made in house; host or cells: S. cerevisiae RS72
Source text: To investigate the H^+-ATPase inhibitory effect of the compounds we isolated plasma membranes containing H^+-ATPase from S. cerevisiae and C. albicans cells.[15] Plasma membranes isolated from pig kidney as well as endoplasmic reticulum membranes from rabbit hind leg muscle were used to counter-screen compounds for activity against mammalian Na^+,K^+-ATPase and Ca^2+-ATPase, respectively. Prior to their use, fungal plasma membrane batches were validated by determining the maximum ATP hydrolysis activity, the pH optimum of the ATPase activity, and the sensitivity to inhibition by orthovanadate. ATPase activity was determined by a colorimetric assay that measures the amount of inorganic phosphate liberated over time, as described in Kjellerup et al., 2017.[15] Table 2, Table 3, Table 4 list the IC50 values obtained by measuring the concentration dependence of the ATPase activity for the fifteen carbazole compounds with each of the four membrane preparations.
Pma1-containing plasma membranes were prepared from S. cerevisiae RS72 yeast cells that had been transformed with the full-length cDNA of the S. cerevisiae plasma membrane H^+-ATPase isoform PMA1 under control of the PMA1 promoter, using the same procedure as described in Kongstad et al., 2014^1. For the preparation of C. albicans membranes, a 100 ml overnight culture grown in YPD (10 g/L yeast extract (BD, Sparks, MD), 20 g/L Bacto peptone (BD), 20 g/L D-(+)-glucose) was transferred to 1 L YPD and grown for a further 7 h at RT with agitation (150 rpm), followed by cell harvesting and subsequent membrane preparation using the same procedure as described in Kongstad et al., 2014^1. […] Rabbit sarcoplasmic reticulum membranes containing Sarco/Endoplasmic Reticulum Ca^2+ ATPase (SERCA) were kindly provided by Dr. Claus E. Olesen and Dr. Jesper V. Møller, Aarhus University and prepared as described in Andersen et al., 1985^2. Pig kidney Na^+,K^+-ATPase was kindly provided by Dr. Natalya Fedosova, Aarhus University and prepared as described in Klodos et al., 2002^3.
The compound libraries were purchased from Enamine Ltd, Ukraine and Chembridge Corp, USA. ATPase activity was determined by measuring the amount of liberated phosphate from ATP hydrolysis. […] Reactions were initiated by the addition of Na-ATP to a final concentration of 2.5 mM (Pma1 and Na^+,K^+-ATPase) or 5 mM (SERCA), followed by 30 minutes incubation at 30 °C. The amount of liberated phosphate was determined colorimetrically after addition of STOP solution (mixture of L-ascorbic acid, ammonium heptamolybdate tetrahydrate, and HCl to give final concentrations of 65 mM, 2.2 mM, and 189 mM, respectively) with 5 minutes incubation at room temperature (RT) followed by addition of arsenite solution (mixture of NaAsO2, sodium citrate dihydrate, and acetic acid to give final concentrations of 3.1 mM, 28 mM, and 141 mM, respectively). Absorption was measured at 860 nm after an additional 30 minutes incubation at RT.

C. albicans cells = assay: Intracellular ATP determination; type: cell-based; settings: compound at 20 µM, 30 minutes, mean ± SEM n = 5
Source text: (§2) It was subsequently evaluated whether or not the carbazoles were able to prevent extracellular acidification of the surrounding media by blocking the pumping activity of the H^+-ATPase within fungal cells.[15] […] The H^+-ATPase requires ATP to transport protons out of fungal cells. Consequently, a decrease in intracellular ATP (iATP) levels will indirectly affect H^+-ATPase activity. […] In all cases, iATP levels were […] in C. albicans cells exposed to carbazoles compared to the untreated control. […] This implies that the carbazoles need to pass the fungal membrane to inhibit the H^+-ATPase and 7, 18 and 19 may have reduced membrane permeability.
C. albicans cells were transferred to 3 ml of YPD media and grown overnight at 30 °C and 150 rpm. The cells were pelleted at 2000 × g for 2 min. and washed in PBS (Sigma-Aldrich, catalog number 8537) twice before re-suspension to an OD600 of 0.1. Cell suspension (98 µL) and 2 µl compound in DMSO were incubated for 30 minutes at RT. Forty microliters of this suspension was then transferred to a black 96-well plate containing 40 µl BacTiterGlo reagent (Promega, Madison, WI) and the plate was incubated for 15 minutes in the dark at room temperature. Luminescence was read on a SpectraMax X5 (Molecular Devices, Sunnyvale, CA) plate reader with 10 s shake and 0.5 s integration time. A standard curve containing 10, 100 and 1000 nM ATP was prepared for every experiment.

S. cerevisiae [2] = assay: Extracellular acidification assay; type: cell-based; settings: Saccharomyces cerevisiae, mean ± SEM n = 3
Source text: as §2
(§3) The ability of S. cerevisiae and C. albicans to acidify the media upon glucose addition was evaluated using the pH sensor dextran (40,000MW)-fluorescein-isothiocyanate as described in Kjellerup et al., 2017^6. Briefly, the cells was starved overnight in 50 mM KCl, pH 6.7 at 4 °C. The cell suspension (Final OD600 of 0.19) was mixed with 1.3 µg/ml dextran (40,000MW)-fluorescein-isothiocyanate, 1.5 % DMSO containing inhibitors and the assay initiated with the addition of 2 % D-(+)-glucose. The rate of media acidification was calculated based on the slope of the fluorescent drop in the first 12 minutes after glucose addition.

C. albicans = assay: Extracellular acidification assay; type: cell-based; settings: Candida albicans, mean ± SEM n = 3
Source text: as §2, §3

T1 sequence (P05030 whole entry, canonical isoform): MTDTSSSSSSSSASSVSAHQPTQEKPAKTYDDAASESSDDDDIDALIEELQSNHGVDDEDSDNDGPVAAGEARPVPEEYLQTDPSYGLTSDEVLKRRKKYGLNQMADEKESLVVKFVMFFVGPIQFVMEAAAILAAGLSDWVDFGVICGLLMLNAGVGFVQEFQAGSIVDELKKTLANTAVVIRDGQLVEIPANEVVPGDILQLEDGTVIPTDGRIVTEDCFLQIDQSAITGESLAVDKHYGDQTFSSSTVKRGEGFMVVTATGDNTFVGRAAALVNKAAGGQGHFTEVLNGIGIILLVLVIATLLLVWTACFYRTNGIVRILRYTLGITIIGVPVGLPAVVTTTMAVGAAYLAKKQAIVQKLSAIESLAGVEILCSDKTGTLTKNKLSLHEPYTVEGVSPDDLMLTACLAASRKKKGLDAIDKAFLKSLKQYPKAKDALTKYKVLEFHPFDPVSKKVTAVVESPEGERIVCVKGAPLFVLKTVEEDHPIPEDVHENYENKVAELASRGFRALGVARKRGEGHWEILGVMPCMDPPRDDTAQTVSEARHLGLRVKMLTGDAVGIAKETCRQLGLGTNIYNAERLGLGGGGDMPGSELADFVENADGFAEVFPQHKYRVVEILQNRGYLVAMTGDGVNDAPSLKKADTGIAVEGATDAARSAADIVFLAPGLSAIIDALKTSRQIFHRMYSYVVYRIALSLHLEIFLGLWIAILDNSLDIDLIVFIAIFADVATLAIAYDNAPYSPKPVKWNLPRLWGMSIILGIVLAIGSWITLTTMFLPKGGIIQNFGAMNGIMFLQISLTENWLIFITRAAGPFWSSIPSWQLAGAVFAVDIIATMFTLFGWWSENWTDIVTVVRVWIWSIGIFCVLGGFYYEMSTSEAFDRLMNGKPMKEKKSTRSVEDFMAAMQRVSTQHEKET

Row | SMILES | MIC (C. albicans (ATCC 90028); ATCC 90028, library hits) [µM] | MIC (S. cerevisiae [1]) [µM] | IC50 (S. cerevisiae H^+-ATPase) [µM] | MIC (C. albicans (ATCC 90028); Candida albicans, ATCC90028, ATCC 90028, library hits) [µM] | iATP (C. albicans cells) [nM] | IC50 (S. cerevisiae [2]) [µM] | IC50 (C. albicans) [µM]
1 | OC(CN1CCCCCC1)Cn1c2ccccc2c2ccccc21 (stereo not shown) [Compound 1] | >200 | > 200 | 18.8 ± 7.3 |  |  |  | 
2 | CC(C)CCOCC(O)Cn1c2ccccc2c2ccccc21 (stereo not shown) [Compound 2] | >200 | 50 (≈ 15.6 µg/mL) | 5.5 ± 0.7 |  |  |  | 
3 | Oc1ccccc1Cn1c2ccccc2c2ccccc21 [Compound 3] | 100 (≈ 27.3 µg/mL) | 50 (≈ 13.7 µg/mL) | 9.7 ± 0.6 |  |  |  | 
4 | OC(CN1CCCC1)Cn1c2ccc(Cl)cc2c2cc(Cl)ccc21 (stereo not shown) [Compound 4] | 30 (≈ 10.9 µg/mL) | 10 (≈ 3.63 µg/mL) | 17.3 ± 5.5 | ≥ 30 |  |  | 
5 | C[C@@H](c1ncncc1F)[C@](O)(Cn1cncn1)c1ccc(F)cc1F [Voriconazole, reference compound] |  |  |  |  | 37 ± 19 | > 75 | > 75
